Source: patent publication US20250058000A1, “Treatment of Proliferative Disorders Using Antibodies to PSMA” (Cornell University, priority 2007, published 2025)

Key:
LNCaP cells [1] = test: Docetaxel inhibition of LNCaP cell growth at different folate concentrations (cell count); type: cell-based, human; details: 10 or 20 μg/ml docetaxel for 72 hours, cells counted after 1 week; FIG. 12
Description: Docetaxel (taxotere) at concentrations of 10 or 20 μg/ml was incubated with LNCaP cells for 72 hours and at different concentrations of folate supplied in the form of folic acid from culture medium. Cells were counted after 1 week. […] The open bar is the control without treatment with docetaxel, the speckled bars are cells treated with 10 ug/ml docetaxel together with the indicated concentration of folate, and the striped bars are cells treated with 20 ug/ml docetaxel together with the indicated concentration of folate. The indicated concentrations of folate are over and above the physiological level of folate provided by the folate present in fetal calf serum (for example, 12 nm folate represents 12 nm folate above the physiological concentration). […] It is likely that decreased folate availability to cancer cells would enhance the anti-tumor effect of other cytotoxic, cytostatic and hormonal.

prostate cancer = details: patients after developing androgen-independence; taxane-based chemotherapy; cited from earlier work
[2] = test system: PSMA expression, SK-RC-06; test: PSMA expression (J591 labeling, FACS) after three weeks in lowered-folate media; type: cell-based, human; details: folate lowered to 50 nM or less, vs standard media, FIG. 8
Description: (§1) According to the World Health Organization, physiological level of serum folate is 12 nmol/L. Standard tissue culture media contains approx 150× the concentration of folate found in human serum/plasma. […] FIGS. 5-11 show the PSMA expression levels of different cell lines were grown for three weeks in standard media (containing 150× physiological concentration of folate; lines 2), standard media with only 50 nM folate, or standard media with only 10 nM folate. The cells were labeled with anti-PSMA antibody J591 followed by a fluorescently labeled secondary antibody that recognizes J591. Lines 1 show the cells labeled with a negative isotype control antibody followed by the labeled secondary antibody.

[3] = test system: PSMA expression, SK-RC-42; test: as above; type: cell-based, human; details: folate lowered to 10-50 nM, vs standard media, FIG. 6
Description: as §1

PSMA expression, PC3 = test: as above; type: cell-based, human; details: folate lowered to 50 nM or less, vs standard media, FIG. 10
Description: as §1

[4] = test system: PSMA expression, Cwr22rv1; test: as above; type: cell-based, human; details: folate lowered to 10 nM, vs standard media, FIG. 9
Description: as §1

[5] = test system: PSMA expression, SK-RC-31; test: as above; type: cell-based, human; details: folate lowered to 10 nM, vs standard media, FIG. 5
Description: as §1

PSMA expression, LNCaP = test: as above; type: cell-based, human; details: folate lowered in the media, FIG. 11
Description: as §1

[6] = test system: PSMA expression, SK-RC-39; test: as above; type: cell-based, human; details: folate lowered to 10 nM, vs standard media, FIG. 7
Description: as §1

LNCaP cells [7] = test: Effect of folic acid concentration on cell growth rate; type: cell-based, human; details: folate level increased above physiological; FIG. 3
Source text: Increasing the folate level above physiological can increase the growth rate by almost 2-fold. In cell lines that express PSMA (such as LNCaP), the same growth increase is also found if folate is provided in the form of ‘natural’ or dietary folate (e.g., polyglutamated folate) which is digested to monoglutamated folate by PSMA. The latter (monoglutamated folate) can cross the cell membrane whereas polyglutamated folate cannot. Anti-PSMA Antibody, J415, Inhibits PSMA tic Activity.

SMILES	Cell killing/inhibition of growth depending on folate level (in words) (LNCaP cells [1])	Median survival (prostate cancer)	Increase in PSMA expression [2]	Increase in PSMA expression [3]	Increase in PSMA expression (PSMA expression, PC3)	Increase in PSMA expression [4]	Increase in PSMA expression [5]	Upregulation of PSMA expression (in words) (PSMA expression, LNCaP)	Increase in PSMA expression [6]	Increase of growth rate (LNCaP cells [7])
CC(=O)O[C@@]12CO[C@@H]1C[C@H](O)[C@@]1(C)C(=O)[C@H](O)C3=C(C)[C@@H](OC(=O)[C@H](O)[C@@H](NC(=O)OC(C)(C)C)c4ccccc4)C[C@@](O)([C@@H](OC(=O)c4ccccc4)[C@H]21)C3(C)C [docetaxel]	decreasing folate levels increases the cell killing/inhibition of growth	19 months	–	–	–	–	–	–	–	–
Nc1nc2ncc(CNc3ccc(C(=O)N[C@@H](CCC(=O)O)C(=O)O)cc3)nc2c(=O)[nH]1 [folate, folic acid]	–	–	225%	650%	400%	950%	250%	did not cause upregulation of PSMA expression	250%	~2 fold
